EC50 data for eight molecules are collected here from patent US20090023704A1, “Novel Compounds 737” (ASTRAZENECA AB, priority 2007, published 2009).

The target of the experiment is T1, GABAB receptor (GABABR1a/GABABR2 heterodimer) (Homo sapiens, UniProt O75899+Q9UBS5).
T1 construct: expressed in transfected cells
T1 sequence (Q9UBS5 15-961 limits assumed): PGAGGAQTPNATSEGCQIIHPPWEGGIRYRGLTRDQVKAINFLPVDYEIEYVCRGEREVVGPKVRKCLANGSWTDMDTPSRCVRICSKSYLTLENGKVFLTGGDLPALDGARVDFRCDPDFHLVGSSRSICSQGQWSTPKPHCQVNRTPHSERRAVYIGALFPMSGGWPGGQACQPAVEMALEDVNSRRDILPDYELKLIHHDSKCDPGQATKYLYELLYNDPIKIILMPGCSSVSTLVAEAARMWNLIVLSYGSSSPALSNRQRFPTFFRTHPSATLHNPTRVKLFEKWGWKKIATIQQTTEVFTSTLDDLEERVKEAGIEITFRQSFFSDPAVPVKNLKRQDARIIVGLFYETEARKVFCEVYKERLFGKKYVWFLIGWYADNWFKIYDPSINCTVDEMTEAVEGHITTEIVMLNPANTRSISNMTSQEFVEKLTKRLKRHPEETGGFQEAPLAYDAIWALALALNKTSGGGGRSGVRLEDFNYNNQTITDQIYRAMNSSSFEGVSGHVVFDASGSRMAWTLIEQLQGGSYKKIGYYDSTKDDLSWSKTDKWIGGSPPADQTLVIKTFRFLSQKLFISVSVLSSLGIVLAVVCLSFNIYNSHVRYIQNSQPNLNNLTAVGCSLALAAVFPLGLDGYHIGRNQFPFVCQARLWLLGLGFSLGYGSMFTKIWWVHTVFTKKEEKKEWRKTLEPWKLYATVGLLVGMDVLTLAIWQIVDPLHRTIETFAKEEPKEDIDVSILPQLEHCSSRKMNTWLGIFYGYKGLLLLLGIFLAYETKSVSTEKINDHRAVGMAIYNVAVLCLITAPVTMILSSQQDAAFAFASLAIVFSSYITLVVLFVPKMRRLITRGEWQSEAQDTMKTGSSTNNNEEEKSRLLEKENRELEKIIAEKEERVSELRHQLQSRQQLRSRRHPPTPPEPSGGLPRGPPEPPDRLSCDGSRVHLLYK
T1 sequence (O75899 42-941): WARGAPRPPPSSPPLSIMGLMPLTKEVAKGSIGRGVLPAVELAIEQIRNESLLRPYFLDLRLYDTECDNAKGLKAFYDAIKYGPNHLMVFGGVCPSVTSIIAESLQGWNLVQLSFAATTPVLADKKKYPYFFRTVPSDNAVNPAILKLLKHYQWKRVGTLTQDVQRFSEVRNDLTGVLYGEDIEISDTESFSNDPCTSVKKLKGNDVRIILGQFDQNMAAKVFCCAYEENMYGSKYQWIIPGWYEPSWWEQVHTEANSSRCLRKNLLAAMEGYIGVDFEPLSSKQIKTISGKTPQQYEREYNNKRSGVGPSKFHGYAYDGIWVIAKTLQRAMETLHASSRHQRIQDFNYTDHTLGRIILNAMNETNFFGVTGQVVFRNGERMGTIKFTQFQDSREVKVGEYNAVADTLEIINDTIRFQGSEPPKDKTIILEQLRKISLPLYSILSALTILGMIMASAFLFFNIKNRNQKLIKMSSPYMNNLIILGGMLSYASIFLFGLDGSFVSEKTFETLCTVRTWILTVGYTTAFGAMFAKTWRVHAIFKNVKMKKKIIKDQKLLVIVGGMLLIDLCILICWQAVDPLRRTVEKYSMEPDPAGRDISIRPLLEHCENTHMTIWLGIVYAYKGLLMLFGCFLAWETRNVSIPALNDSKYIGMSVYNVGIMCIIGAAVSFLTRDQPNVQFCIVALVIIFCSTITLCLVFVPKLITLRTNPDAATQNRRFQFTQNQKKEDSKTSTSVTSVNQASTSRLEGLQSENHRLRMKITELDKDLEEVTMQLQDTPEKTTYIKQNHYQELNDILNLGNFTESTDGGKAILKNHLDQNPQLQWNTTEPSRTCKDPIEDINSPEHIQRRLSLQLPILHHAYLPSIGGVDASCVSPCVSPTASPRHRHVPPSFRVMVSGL
Nature of the experiment: [35S]-GTPγS binding assay, potency of PAM (GABA dose-response curves with and without test compound). The conditions noted are these: potency of the positive allosteric modulator; GABA dose-response in presence of test compound. It is filed as biochemical. In outline:
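Membranes from human GABABR1a/GABABR2-expressing cell lines, one with a GABABR1a-Gαqi5mut fusion, were incubated at 30 °C for 45 min, pH 7.4, with 10 μM GDP and 0.53 nM [35S]-GTPγS. GABA (0.1 nM–1 mM) was added with or without PAM, and EC50 was obtained by 4-parameter logistic fit after filtration and scintillation counting.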
For orientation: GTPγS is a poorly hydrolysed GTP analogue; its binding reports G protein activation.
Regarding `CCc1nc2c(c(=O)n(Cc3ccc(Cl)cc3)c(=O)n2Cc2ccccc2)n1C` [Example 1, 3-benzyl-1-(4-chlorobenzyl)-8-ethyl-7-methyl-3,7-dihydro-1H-purine-2,6-dione], the EC50 was 6.33 µM. To `CCc1nc2c(c(=O)n(Cc3ccc(Cl)cc3)c(=O)n2CC(=O)N2CCC(F)(F)C2)n1C` [Example 50, 1-(4-Chlorobenzyl)-3-[2-(3,3-difluoropyrrolidin-1-yl)-2-oxoethyl]-8-ethyl-7-methyl-3,7-dihydro-1H-purine-2,6-dione] belongs 10 µM; to `CCCn1c(=O)n(Cc2ccc(Cl)cc2)c(=O)c2c1nc(N1CCC1)n2C` [Example 83, 8-azetidin-1-yl-1-(4-chlorobenzyl)-7-methyl-3-propyl-3,7-dihydro-1H-purine-2,6-dione], 7.8 µM.

Consider `CCc1nc2c(c(=O)n(Cc3ccc(Cl)cc3)c(=O)n2CCCO)n1C` [Example 38, 1-(4-chlorobenzyl)-8-ethyl-3-(3-hydroxypropyl)-7-methyl-3,7-dihydro-1H-purine-2,6-dione], for which the EC50 came to 6.8 µM.

In the case of `CCCn1c(=O)n(Cc2ccc(C(C)C)cc2)c(=O)c2c1nc(CC)n2C` [Example 70, 8-Ethyl-1-(4-isopropylbenzyl)-7-methyl-3-propyl-3,7-dihydro-1H-purine-2,6-dione], the EC50 was found to be 6.1 µM. To `CCc1nc2c(c(=O)n(Cc3ccc(Cl)cc3)c(=O)n2CCOC)n1C` [Example 32, 1-(4-chlorobenzyl)-8-ethyl-3-(2-methoxyethyl)-7-methyl-3,7-dihydro-1H-purine-2,6-dione] belongs 7.9 µM.

Consider `CCCn1c(=O)n(Cc2ccc(Cl)cc2)c(=O)c2c1nc(N1CCC[C@H]1CN1CCCC1)n2C` [Example 94, 1-(4-chlorobenzyl)-7-methyl-3-propyl-8-[(2S)-2-(pyrrolidin-1-ylmethyl)pyrrolidin-1-yl]-3,7-dihydro-1H-purine-2,6-dione], for which the EC50 was determined as 9 µM. Regarding `CCc1nc2c(c(=O)n(Cc3ccc(Cl)cc3)c(=O)n2Cc2ccc(S(C)(=O)=O)cc2)n1C` [Example 22, 1-(4-chlorobenzyl)-8-ethyl-7-methyl-3-[4-(methylsulfonyl)benzyl]-3,7-dihydro-1H-purine-2,6-dione], the EC50 came out at 2.5 µM.

A word on the EC50: it is the concentration giving half of the maximal effect.
